This assay concerns HCV type 1b replicon in Huh-7 luc/neo (Huh-Luc) cells. The experiment in a line: HCV replicon assay (Huh-Luc, luciferase readout). The conditions noted are these: Hepatitis C virus, Huh-7, 72 h, three days incubation, luciferase activity, read-out: HCV-REP-HUH-LUC_EC50. Type of assay: cell-based. The source says:
The compounds of formula (I) were examined for inhibitory activity in the HCV replicon. This cellular assay is based on a bicistronic expression construct, as described by Lohmann et al. (1999) Science vol. 285 pp. 110-113 with modifications described by Krieger et al. (2001) Journal of Virology 75: 4614-4624, in a multi-target screening strategy.
In essence, the method was as follows:
The assay utilized the stably transfected cell line Huh-7 luc/neo (hereafter referred to as Huh-Luc). This cell line harbors an RNA encoding a bicistronic expression construct comprising the wild type NS3-NS5B regions of HCV type 1b translated from an Internal Ribosome Entry Site (IRES) from encephalomyocarditis virus (EMCV), preceded by a reporter portion (FfL-luciferase), and a selectable marker portion (neoR, neomycine phosphotransferase). The construct is flanked by 5′ and 3′ NTRs (non-translated regions) from HCV type 1b. Continued culture of the replicon cells in the presence of G418 (neoR) is dependent on the replication of the HCV RNA. The stably transfected replicon cells that express HCV RNA, which replicates autonomously and to high levels, encoding inter alia luciferase, were used for screening the antiviral compounds.
The replicon cells were plated in 384 well plates in the presence of the test and control compounds which were added in various concentrations. Following an incubation of three days, HCV replication was measured by assaying luciferase activity (using standard luciferase assay substrates and reagents and a Perkin Elmer ViewLux™ ultraHTS microplate imager). Replicon cells in the control cultures have high luciferase expression in the absence of any inhibitor. The inhibitory activity of the compound on luciferase activity was monitored on the Huh-Luc cells, enabling a dose-response curve for each test compound. EC50 values were then calculated, which represent the amount of compound required to decrease the level of detected luciferase activity by 50%, or more specifically, to reduce the ability of the genetically linked HCV replicon RNA to replicate.
As to `COC(=O)N[C@H](C(=O)N1CCC[C@H]1c1nc2ccc(-c3ccc(-c4ccc5nc([C@@H]6CCCN6C(=O)[C@@H](NC(=O)OC)[C@@H](C)OC)[nH]c5c4)nc3)cc2[nH]1)[C@@H](C)OC` [Compound 9], the EC50 worked out at 0.31 nM.

Consider `COC(=O)N[C@@H](C(=O)N1CCC[C@H]1c1nc2cc(-c3ccc(-c4ccc5nc([C@@H]6CCCN6C(=O)[C@H](NC(=O)OC)c6ccccc6)[nH]c5c4)nn3)ccc2[nH]1)c1ccccc1` [Compound 6], for which the EC50 is 0.045 nM.

On to `COC(=O)N[C@@H](C(=O)N1CCC[C@H]1c1nc2cc(-c3ncc(-c4ccc5nc([C@@H]6CCCN6C(=O)[C@H](NC(=O)OC)c6ccccc6)[nH]c5c4)cn3)ccc2[nH]1)c1ccccc1` [Compound 5], for which the EC50 is below 0.015 nM.

Consider `COC(=O)N[C@H](C(=O)N1CCC[C@H]1c1nc2cc(-c3ncc(-c4ccc5nc([C@@H]6CCCN6C(=O)[C@@H](NC(=O)OC)[C@@H](C)OC)[nH]c5c4)cn3)ccc2[nH]1)[C@@H](C)OC` [Compound 3], for which the EC50 came to 0.13 nM.

Consider `COC(=O)N[C@H](C(=O)N1CCC[C@H]1c1nc2cc(-c3ncc(-c4ccc5nc([C@@H]6CCCN6C(=O)[C@@H](NC(=O)OC)C(C)C)[nH]c5c4)cn3)ccc2[nH]1)C(C)C` [Compound 4], for which the EC50 was determined as 0.03 nM.

Turning to `COC(=O)N[C@H](C(=O)N1CCC[C@H]1c1nc2cc(-c3ccc(-c4ccc5nc([C@@H]6CCCN6C(=O)[C@@H](NC(=O)OC)C(C)C)[nH]c5c4)nn3)ccc2[nH]1)C(C)C` [Compound 1], the EC50 was found to be 0.13 nM.

On to `COC(=O)N[C@H](C(=O)N1CCC[C@H]1c1nc2cc(-c3ncc(-c4ccc5nc([C@@H]6CCCN6C(=O)[C@@H](NC(=O)OC)C6CC6)[nH]c5c4)cn3)ccc2[nH]1)C1CC1` [Compound 7], for which the EC50 amounted to 0.059 nM.

Source of the values: patent US20120172368A1, “Bis-Benzimidazole Derivatives” (priority 2009, published 2012).
